Data published in patent publication US20110178104A1, “Anti-Heparin Compounds” (POLYMEDIX INC., priority 2010, published 2011).

How the values were obtained:
Unfractionated heparin = assay: aPTT clotting assay, UFH 0.4 U/mL in plasma (Example 10); assay type: biochemical; details: unfractionated heparin 0.4 U/mL in plasma; aPTT clotting
Experimental: aPTT clotting Assay: Unfractionated heparin was mixed with plasma at a final concentration of 0.4 U/mL (or concentration which increases aPTT time to between 120 and 300 seconds). […] The ACL Elite Hemostasis analyzer (Beckman Coulter™) was used to add aPTT reagent (HemosIL SynthASil) to supplemented plasma. Clotting was initiated by addition of CaCl2 and time to clot was recorded.

fondaparinux = assay: FXa amidolytic assay (Example 10), fondaparinux; details: read-out: Fondap FXa EC50; fondaparinux 0.02 μg/mL; human antithrombin, bovine Factor Xa
Experimental: (§1) Two μl of test agent are added (range between 0.01 and 23 ug/ml) and incubated for 5 minutes at 23° C. Bovine Factor Xa was added to a final concentration of 0.636 nkat/mL and incubated for a further 10 minutes at 23° C.

tinzaparin = assay: FXa amidolytic assay (Example 10), tinzaparin; details: read-out: Tinzap FXa EC50; tinzaparin 0.1 ug/ml; human antithrombin, bovine Factor Xa
Experimental: as §1

enoxaparin = assay: FXa amidolytic assay (Example 10), enoxaparin; details: read-out: Enox FXa EC50; enoxaparin 0.1 ug/ml; human antithrombin, bovine Factor Xa
Experimental: as §1

COc1ccc(NC(=O)[C@H](CCCNC(=N)N)NC(=O)c2cc(NC(=O)[C@H](CCCNC(=N)N)NC(=O)c3cc(NC(=O)[C@H](CCCNC(=N)N)NC(=O)c4cc(NC(C)=O)ccc4OC)ccc3OC)ccc2OC)cc1C(=O)N[C@@H](Cc1ccc(O)cc1)C(=O)O [Compound 301]
EC50 (Unfractionated heparin): 6080 nM | EC50 (fondaparinux): 295 nM | EC50 (tinzaparin): 278 nM | EC50 (enoxaparin): 276 nM

COc1ccc(NC(C)=O)cc1C(=O)N[C@@H](CCCNC(=N)N)C(=O)Nc1ccc(OC)c(C(=O)N[C@@H](CCCNC(=N)N)C(=O)Nc2ccc(OC)c(C(=O)N[C@@H](CCCNC(=N)N)C(=O)Nc3ccc(OC)c(C(=O)N[C@H](Cc4ccc(O)cc4)C(=O)O)c3)c2)c1 [Compound 302]
EC50 (Unfractionated heparin): 10600 nM | EC50 (fondaparinux): 491 nM | EC50 (tinzaparin): 278 nM | EC50 (enoxaparin): 298 nM

COc1ccc(NC(=O)[C@H](CCC(=O)O)NC(=O)c2cc(NC(=O)[C@H](CCCCN)NC(=O)c3cc(NC(=O)[C@H](CCCCN)NC(=O)c4cc(NC(=O)[C@@H](N)CCCCN)ccc4OC)ccc3OC)ccc2OC)cc1C(N)=O [Compound 315]
EC50 (Unfractionated heparin): 2050 nM | EC50 (fondaparinux): > 10000 nM | EC50 (tinzaparin): 492 nM | EC50 (enoxaparin): 1790 nM

COc1ccc(NC(=O)[C@H](CCCCN)NC(=O)c2cc(NC(=O)[C@H](CCC(=O)O)NC(=O)c3cc(NC(=O)[C@H](CCCCN)NC(=O)c4cc(NC(=O)[C@@H](N)CCCCN)ccc4OC)ccc3OC)ccc2OC)cc1C(N)=O [Compound 316]
EC50 (Unfractionated heparin): 2040 nM | EC50 (fondaparinux): 1750 nM | EC50 (tinzaparin): 223 nM | EC50 (enoxaparin): 329 nM

COc1ccc(NC(=O)[C@H](CCCCN)NC(=O)c2cc(NC(=O)[C@H](CCCCN)NC(=O)c3cc(NC(=O)[C@H](CCCCN)NC(=O)c4cc(NC(=O)[C@@H](N)CCC(=O)O)ccc4OC)ccc3OC)ccc2OC)cc1C(N)=O [Compound 318]
EC50 (Unfractionated heparin): 1410 nM | EC50 (fondaparinux): 3050 nM | EC50 (tinzaparin): 261 nM | EC50 (enoxaparin): 407 nM

COc1ccc(NC(=O)[C@@H](CCC(=O)O)NC(=O)c2cc(NC(=O)[C@@H](CCCNC(=N)N)NC(=O)c3cc(NC(=O)[C@@H](CCCNC(=N)N)NC(=O)c4cc(NC(=O)[C@H](N)CCCNC(=N)N)ccc4OC)ccc3OC)ccc2OC)cc1C(N)=O [Compound 319]
EC50 (Unfractionated heparin): 2440 nM | EC50 (fondaparinux): 1050 nM | EC50 (tinzaparin): 178 nM | EC50 (enoxaparin): 276 nM

COc1ccc(NC(=O)[C@@H](CCCNC(=N)N)NC(=O)c2cc(NC(=O)[C@@H](CCC(=O)O)NC(=O)c3cc(NC(=O)[C@@H](CCCNC(=N)N)NC(=O)c4cc(NC(=O)[C@H](N)CCCNC(=N)N)ccc4OC)ccc3OC)ccc2OC)cc1C(N)=O [Compound 320]
EC50 (Unfractionated heparin): 2420 nM | EC50 (fondaparinux): 4890 nM | EC50 (tinzaparin): 285 nM | EC50 (enoxaparin): 901 nM

COc1ccc(NC(=O)[C@H](CCC(=O)O)NC(=O)c2cc(NC(=O)[C@H](CCCNC(=N)N)NC(=O)c3cc(NC(=O)[C@H](CCCNC(=N)N)NC(=O)c4cc(NC(=O)[C@@H](N)CCCNC(=N)N)ccc4OC)ccc3OC)ccc2OC)cc1C(N)=O [Compound 323]
EC50 (Unfractionated heparin): 2960 nM | EC50 (fondaparinux): 1160 nM | EC50 (tinzaparin): 250 nM | EC50 (enoxaparin): 326 nM

COc1ccc(NC(=O)[C@H](CCCNC(=N)N)NC(=O)c2cc(NC(=O)[C@H](CCC(=O)O)NC(=O)c3cc(NC(=O)[C@H](CCCNC(=N)N)NC(=O)c4cc(NC(=O)[C@@H](N)CCCNC(=N)N)ccc4OC)ccc3OC)ccc2OC)cc1C(N)=O [Compound 324]
EC50 (Unfractionated heparin): 2930 nM | EC50 (fondaparinux): 3840 nM | EC50 (tinzaparin): 438 nM | EC50 (enoxaparin): 784 nM

COc1ccc(NC(=O)[C@H](CCCNC(=N)N)NC(=O)c2cc(NC(=O)[C@H](CCCNC(=N)N)NC(=O)c3cc(NC(=O)[C@H](CCCNC(=N)N)NC(=O)c4cc(NC(=O)[C@@H](N)CCC(=O)O)ccc4OC)ccc3OC)ccc2OC)cc1C(N)=O [Compound 326]
EC50 (Unfractionated heparin): 1990 nM | EC50 (fondaparinux): 549 nM | EC50 (tinzaparin): 234 nM | EC50 (enoxaparin): 289 nM

COc1ccc(NC(=O)[C@H](CCCCN)NC(=O)c2cc(NC(=O)[C@H](CCCCN)NC(=O)c3cc(NC(=O)[C@H](CCCCN)NC(=O)c4cc(N)ccc4OC)ccc3OC)ccc2OC)cc1C(N)=O [Compound 327]
EC50 (Unfractionated heparin): 1930 nM | EC50 (fondaparinux): 6770 nM | EC50 (tinzaparin): 470 nM | EC50 (enoxaparin): 1030 nM

COc1ccc(NC(=O)[C@H](CCCCN)NC(=O)c2cc(NC(=O)[C@H](CCCCN)NC(=O)c3cc(NC(=O)[C@H](CCCCN)NC(=O)c4cc(NC(C)=O)ccc4OC)ccc3OC)ccc2OC)cc1C(N)=O [Compound 328]
EC50 (Unfractionated heparin): 1880 nM | EC50 (fondaparinux): 2330 nM | EC50 (tinzaparin): 257 nM | EC50 (enoxaparin): 448 nM

COc1ccc(NC(=O)[C@H](CCCCN)NC(=O)c2cc(NC(=O)[C@H](CCCCN)NC(=O)c3cc(NC(=O)[C@H](CCCCN)NC(=O)c4cc(NC(=O)[C@H](CCCCN)NC(=O)CCC(=O)O)ccc4OC)ccc3OC)ccc2OC)cc1C(N)=O [Compound 339]
EC50 (Unfractionated heparin): 910 nM | EC50 (fondaparinux): 1900 nM | EC50 (tinzaparin): 235 nM | EC50 (enoxaparin): 272 nM

COc1ccc(NC(=O)[C@H](CCCCN)NC(=O)c2cc(NC(=O)[C@H](CCCCN)NC(=O)c3cc(NC(=O)[C@H](CCCCN)NC(=O)c4cc(NC(=O)[C@H](CCCCN)NC(=O)c5cccc(C(=O)O)c5)ccc4OC)ccc3OC)ccc2OC)cc1C(N)=O [Compound 342]
EC50 (Unfractionated heparin): 2350 nM | EC50 (fondaparinux): 167 nM | EC50 (tinzaparin): 147 nM | EC50 (enoxaparin): 153 nM

COc1ccc(NC(=O)[C@H](CCCCN)NC(=O)c2cc(NC(=O)[C@H](CCCCN)NC(=O)c3cc(NC(=O)[C@H](CCCCN)NC(=O)c4cc(NC(=O)[C@H](CCCCN)NC(=O)CCCC(=O)O)ccc4OC)ccc3OC)ccc2OC)cc1C(N)=O [Compound 344]
EC50 (Unfractionated heparin): 680 nM | EC50 (fondaparinux): 2060 nM | EC50 (tinzaparin): 244 nM | EC50 (enoxaparin): 392 nM

COc1ccc(NC(=O)[C@H](CCCCN)NC(=O)c2cc(NC(=O)[C@H](CCCCN)NC(=O)c3cc(NC(=O)[C@H](CCCCN)NC(=O)c4cc(NC(=O)[C@H](CCCCN)NC(=O)COCC(=O)O)ccc4OC)ccc3OC)ccc2OC)cc1C(N)=O [Compound 345]
EC50 (Unfractionated heparin): 2990 nM | EC50 (fondaparinux): 911 nM | EC50 (tinzaparin): 205 nM | EC50 (enoxaparin): 233 nM

COc1cc(OC)c(C(=O)NCCCNC(=O)c2cc(C(=O)NCCCNC(=O)c3cc(C(=O)NCCN)c(OC)cc3OC)c(OC)cc2OC)cc1C(=O)NCCN [Compound 391]
EC50 (Unfractionated heparin): > 10000 nM | EC50 (fondaparinux): > 10000 nM | EC50 (tinzaparin): > 5000 nM | EC50 (enoxaparin): > 5000 nM

COc1cc(OC)c(C(=O)NCCCNC(=O)c2cc(C(=O)NCCN)c(OC)cc2OC)cc1C(=O)O [Compound 392]
EC50 (Unfractionated heparin): > 10000 nM | EC50 (fondaparinux): > 10000 nM | EC50 (tinzaparin): > 5000 nM | EC50 (enoxaparin): > 5000 nM

COc1cc(OC)c(C(=O)NC2CCN(C(=O)c3cc(C(=O)N4CCC(NC(=O)c5cc(C(=O)NCCN)c(OC)cc5OC)CC4)c(OC)cc3OC)CC2)cc1C(=O)NCCN [Compound 393]
EC50 (Unfractionated heparin): > 10000 nM | EC50 (fondaparinux): > 10000 nM | EC50 (tinzaparin): > 5000 nM | EC50 (enoxaparin): > 5000 nM

COc1cc(OC)c(C(=O)N2CCC(NC(=O)c3cc(C(=O)NCCN)c(OC)cc3OC)CC2)cc1C(=O)O [Compound 394]
EC50 (Unfractionated heparin): > 10000 nM | EC50 (fondaparinux): > 10000 nM | EC50 (tinzaparin): > 5000 nM | EC50 (enoxaparin): > 5000 nM

COc1cc(OC)c(C(=O)NCC2CCN(C(=O)c3cc(C(=O)N4CCC(CNC(=O)c5cc(C(=O)NCCN)c(OC)cc5OC)CC4)c(OC)cc3OC)CC2)cc1C(=O)NCCN [Compound 395]
EC50 (Unfractionated heparin): > 10000 nM | EC50 (fondaparinux): > 10000 nM | EC50 (tinzaparin): > 5000 nM | EC50 (enoxaparin): > 5000 nM

COc1cc(OC)c(C(=O)N2CCC(CNC(=O)c3cc(C(=O)NCCN)c(OC)cc3OC)CC2)cc1C(=O)O [Compound 396]
EC50 (Unfractionated heparin): > 10000 nM | EC50 (fondaparinux): > 10000 nM | EC50 (tinzaparin): > 5000 nM | EC50 (enoxaparin): > 5000 nM

COc1cc(OC)c(C(=O)N[C@H]2CC[C@H](NC(=O)c3cccc(C(=O)O)c3)CC2)cc1C(=O)NCCN [Compound 399]
EC50 (Unfractionated heparin): > 10000 nM | EC50 (fondaparinux): > 10000 nM | EC50 (tinzaparin): > 5000 nM | EC50 (enoxaparin): > 5000 nM

COc1cc(OC)c(C(=O)N[C@H]2CC[C@H](NC(=O)c3cncc(C(=O)O)c3)CC2)cc1C(=O)NCCN [Compound 401]
EC50 (Unfractionated heparin): > 10000 nM | EC50 (fondaparinux): > 10000 nM | EC50 (tinzaparin): > 5000 nM | EC50 (enoxaparin): > 5000 nM

COc1cc(OC)c(C(=O)N[C@H]2CC[C@H](NC(=O)c3cc(C(=O)O)ncn3)CC2)cc1C(=O)NCCN [Compound 403]
EC50 (Unfractionated heparin): > 10000 nM | EC50 (fondaparinux): > 10000 nM | EC50 (tinzaparin): > 5000 nM | EC50 (enoxaparin): > 5000 nM

COc1cc(OC)c(C(=O)N[C@H]2CC[C@@H](NC(=O)c3cc(C(=O)N[C@H]4CC[C@@H](N=C(N(C)C)N(C)C)CC4)c(OC)cc3OC)CC2)cc1C(=O)NCCCN [Compound 405]
EC50 (Unfractionated heparin): > 10000 nM | EC50 (fondaparinux): > 10000 nM | EC50 (tinzaparin): > 5000 nM | EC50 (enoxaparin): > 5000 nM

COc1cc(OC)c(C(=O)N[C@H]2CC[C@H](NC(=O)c3cc(C(=O)NCCCN)c(OC)cc3OC)CC2)cc1C(=O)O [Compound 407]
EC50 (Unfractionated heparin): > 10000 nM | EC50 (fondaparinux): > 10000 nM | EC50 (tinzaparin): > 5000 nM | EC50 (enoxaparin): > 5000 nM

COc1cc(OC)c(C(=O)NCCCNC(=O)c2cc(C(=O)NCCCNC(=O)c3cc(C(=O)NCCCN)c(OC)cc3OC)c(OC)cc2OC)cc1C(=O)NCCCN [Compound 408]
EC50 (Unfractionated heparin): > 10000 nM | EC50 (fondaparinux): > 10000 nM | EC50 (tinzaparin): > 5000 nM | EC50 (enoxaparin): > 5000 nM

COc1cc(OC)c(C(=O)NCCCNC(=O)c2cc(C(=O)NCCCN)c(OC)cc2OC)cc1C(=O)O [Compound 409]
EC50 (Unfractionated heparin): > 10000 nM | EC50 (fondaparinux): > 10000 nM | EC50 (tinzaparin): > 5000 nM | EC50 (enoxaparin): > 5000 nM

COc1cc(OC)c(C(=O)N[C@H]2CC[C@@H](NC(=O)c3cc(C(N)=O)c(OCCCCCN)cc3OCCCCCN)CC2)cc1C(=O)N[C@H]1CC[C@@H](NC(=O)c2cc(C(N)=O)c(OCCCCCN)cc2OCCCCCN)CC1 [Compound 412]
EC50 (Unfractionated heparin): 687 nM | EC50 (fondaparinux): 197 nM | EC50 (tinzaparin): 113 nM | EC50 (enoxaparin): 125 nM
